Test results taken from a melting point compilation (Tetko et al.; mined from patent text by program, amines drawn as free bases though some values may be those of a salt).

Row | SMILES | melting point [°C]
1 | CCCCCCNC(=O)c1ccc(N2N=C(C)C(=CNc3ccccc3CC)C2=O)cc1 | 62.1
2 | Cc1nc2c(c(=O)[nH]1)-c1cc(S(=O)(=O)Nc3ccc(C(N)=O)cc3)ccc1CC2 | 190
3 | Nc1cnc2ccc(C(F)(F)F)cc2c1-c1ccccc1 | 107 to 108
4 | O=C(Nc1cccc(Cl)c1)N[C@H]1C[C@H](C(=O)O)Nc2cc(Cl)cc(Cl)c21 (relative stereo) | 173 to 175
5 | CCOC(=O)c1ccc(NC(=O)CC(c2ccc(Cl)cc2)c2ccc(Cl)cc2)cc1 | 152 to 155
6 | CCc1ccnc(C(=O)c2[nH]c3ccc(CC)cc3c2CC(=O)O)c1 | 206
7 | CS(=O)(=O)c1ccc(-c2cc(F)c(F)cc2Br)cc1 | 158 to 160
8 | CC(Oc1cccc(Cl)c1)C(=O)NCCO[N+](=O)[O-] (stereo not given) | 67 to 69
9 | CCOC(=N)c1cccc(Cc2ccccc2)c1 | 121 to 122
10 | CC(C)c1cccc(Cl)c1Oc1nnc(Cl)cc1Cl | 90 to 91
11 | COc1cccc(C=O)c1 | 83 to 84
12 | Nc1cn(-c2cccnc2)nc1Br | 143 to 146
13 | CCOc1ccc2c(OC(=O)C(F)(F)F)c3cc4ccccc4cc3c(OC(=O)C(F)(F)F)c2c1 | 165 to 170
14 | Cc1cn(-c2ccc(N3C[C@H](CO)OC3=O)cc2F)cn1 | 151 to 153
15 | ClCc1ccc2ccc3cccc4ccc1c2c34 | 146 to 148
16 | CCCCCC(=O)CCCCc1ccc(O)c(O)c1 | 76 to 78
17 | CC1Cc2cc(Cl)ccc2C(c2ccc([N+](=O)[O-])cc2)O1 (stereo not given) | 118 to 120
18 | Cc1ccc(C(C(=O)C(C)C)c2ccc(C)cc2)cc1 | 48 to 51
19 | Clc1ccc(Sc2cc(NCCN3CCOCC3)nc(-c3ccc(Cl)cc3)n2)cc1 | 159 to 161
20 | O=C(CCCN1CCCCC1)c1ccc2c(c1)Cc1cc(C(=O)CCCN3CCCCC3)ccc1-2 | 157 to 159
21 | O=C(CCCCCBr)NC(C(=O)c1ccc(Cl)cc1)c1ccc(Cl)cc1 (stereo not given) | 105
22 | CC(=O)O[C@H]1C[C@@H](n2cnc3c(Cl)ncnc32)[C@H](O)[C@@H]1O (racemic) | 103 to 104
23 | N#Cc1cccc2c1NC(=O)C2c1ncnc2nn(C3CCCC3)cc12 (stereo not given) | > 380
24 | c1ccc(-c2ccc(-c3nc4c5ccccc5ccn4n3)cc2)cc1 | 203 to 205
25 | O=C(O)Cc1cc(C(=O)Cc2c(F)cccc2Cl)ccc1O | 240

Row | SMILES | melting point [°C]
26 | CC(=CCCC(C)C1CCC2(C)C3=CCC4C(C)(C)C(=O)CCC4(C)C3=CCC12C)CO (stereo not given) | 75 to 80
27 | CN1CCN(Cc2ccccc2)C(c2ccccc2)C1 (stereo not given) | 58 to 60
28 | Cc1ccc(NC(=O)N(C)Cc2cccc3c2C(=O)N(C2CCC(=O)NC2=O)C3=O)cc1C (stereo not given) | 202 to 204
29 | CC12CCC(C1)C1(C)Oc3ccc(C(=O)c4ccc(C=O)cc4)cc3C21C (stereo not given) | 138 to 142
30 | COc1ccc2c(c1)N1CCOCC1C[N+]([O-])=C2c1ccco1 (stereo not given) | 183 to 186
31 | CCOC(=O)C1CCC(=O)C(Sc2ccc(C)cc2)C1 (stereo not given) | 87 to 89
32 | CC(=O)Nc1nc2c(s1)-c1nc(N3CCCC(CNC(=O)OC(C)(C)C)C3)ncc1CC2 (stereo not given) | 250 to 255
33 | COC(=O)CC1(O)C=CC(=O)C=C1 | 53 to 54
34 | CC(NC(=O)Cc1cc(F)cc(F)c1)C(=O)NC1C(=O)NC(C)c2ccccc21 (stereo not given) | 205 to 206
35 | C=CCOc1cc(OCc2ccc3ccccc3c2)cc(C(=O)c2nccs2)c1 | 65 to 67
36 | Cc1oc(-c2ccc(C(F)(F)F)cc2)nc1COc1ccc(/C=C/Cn2oc(=O)[nH]c2=O)cc1 | 128 to 130
37 | O=C(O)Cc1ccccc1Cc1nc2c(F)c(F)cc(F)c2s1 | 124 to 126
38 | CC(=O)Nc1ccc(NC(=O)N(C[C@H]2CC[C@H](CN(C(=O)Nc3ccc(NC(C)=O)cc3)C3CCCCC3)CC2)C2CCCCC2)cc1 | 228 to 231
39 | CCCC(=O)c1cc2c(=O)cc(C(=O)OC)[nH]c2c(C)c1C | 157 to 159
40 | O=C(O)c1cccnc1Nc1cccc([N+](=O)[O-])c1 | 262 to 264
41 | COC(=O)C=Cc1ccc(C(C)(C)C)cc1 | 35
42 | Cc1c(-c2ccccc2)oc2c(C#N)cccc12 | 86 to 87
43 | CN(C)CCNC1=CC(=O)c2nc(-c3ccc4ccccc4c3)sc2C1=O | 167 to 168
44 | Cc1nc(-n2cnn(CCOC(=O)NCc3ccc(F)cc3)c2=O)sc1C(=O)NCc1cccnc1 | 149 to 150
45 | O=C(O)c1[nH]c(=O)c2ccccc2c1-c1ccccc1 | > 300
46 | c1ccc2oc(-c3nc(COc4ccc(CCCn5ccnc5)cc4)co3)cc2c1 | 122 to 123
47 | CC(=O)N1CCN(c2ccc([N+](=O)[O-])c(C)c2)CC1 | 133 to 137
48 | O=C(NCCCn1cncn1)c1ccc(Cl)c(Cl)c1 | 128 to 130
49 | CC(C)NC1=NS(=O)(=O)c2c(cnn2C)N1 | 242 to 243
50 | CC1(C)Cc2c(c(N3CCOCC3)nc3sc4c(NCC(=O)N5CCOCC5)ncnc4c23)CO1 | 209 to 210
